Assay: Human HepG2 cell viability assay in 384 well format
Format: toxicity, cell-based
Parameters: dose 125 nL, time 70.5 hour; concentration not given beside the values
Conditions: HepG2 cells, read-out: Inhibition

Row | Structure (SMILES) | cytotoxicity at 70.5 h [%]
1 | O=C1NC2(CCN(CC(=O)N3CCOCC3)CC2)Nc2ccccc21 | -2.3
2 | CC(C)c1cc(C(F)(F)F)n2nc(C3CCN(S(C)(=O)=O)C3)cc2n1 (stereo not drawn) | -1.05
3 | O=C1NC2(CCCN(C(=O)CCn3cccn3)C2)Oc2ccccc21 (stereo not drawn) | 1.47
4 | COc1ccccc1N1CCC(NCc2c(C)noc2C)C1 (stereo not drawn) | 30
5 | CCc1ccccc1OCC(=O)Nc1ccnc(OCCN(C)C)c1 | 3.03
6 | NC(=O)CN(Cc1cccc(Oc2ccccc2)c1)C(=O)C1CC1 | -4.97
7 | O=S(=O)(Nc1ccc(N2CCOCC2)cn1)c1cccc(F)c1 | -3.99
8 | Cc1ccc(S(=O)(=O)Nc2ccc(N3CCOCC3)cn2)cc1 | -3.69
9 | COc1ccc(C(CN2CCN(C)CC2)Nc2ncccn2)cc1 (stereo not drawn) | 0.96
10 | COc1cc(C)ccc1OCC(=O)Nc1ccnc(OCCN(C)C)c1 | 39.3
11 | COc1ccnc(N(C)Cc2c(C)noc2C)n1 | -3.59
12 | CC(=O)N1CCCN(C(=O)NC(C)c2ccc(C)o2)CC1 (stereo not drawn) | 1.15
13 | CC(C(=O)NCc1cccs1)N1CCN(Cc2nccn2C)CC1 (stereo not drawn) | 13.2
14 | COc1ccc(SC(C)C(=O)N2CCC(C(=O)N3CCCC3)CC2)cc1 (stereo not drawn) | -5.49
15 | COc1ccc(SC(C)C(=O)N2CCC(O)CC2)cc1 (stereo not drawn) | -4.3
16 | N#Cc1ccccc1OCCN1CCC(C(=O)N2CCOCC2)CC1 | -9.69
17 | Cc1cc(C2CCCN2C(=O)c2ccc(OCC(N)=O)cc2)no1 (stereo not drawn) | -11.5
18 | O=C(CCn1cncn1)NC1CCS(=O)(=O)C1 (stereo not drawn) | -11
19 | Cc1ccc(OCCCNC(=O)C(C)Sc2nncn2C)cc1 (stereo not drawn) | -12.1
20 | CC(C)c1nc2n(n1)CC(Nc1ncnc3ccccc13)CC2 (stereo not drawn) | -13
21 | CN(C)S(=O)(=O)NC(=O)CC(c1ccccc1)C(F)(F)F (stereo not drawn) | -2.07
22 | COCC(C)(C)NC(=O)CC(c1ccccc1)C(F)(F)F (stereo not drawn) | -15.6
23 | Cc1nc2n(n1)CC(Nc1ncnc3c1CCC3)CC2 (stereo not drawn) | -10.2
24 | O=C(C[S+]([O-])Cc1csc(C2CCCC2)n1)Nc1ccccc1 (stereo not drawn) | -17.5

Row | Structure (SMILES) | cytotoxicity at 70.5 h [%]
25 | c1nc2c(c(NC3CCc4ncnn4C3)n1)CCC2 (stereo not drawn) | -8.75
26 | N#Cc1cccc(OCCN2CCC(C(=O)N3CCOCC3)CC2)c1 | -11.2
27 | CCC(C)(C)NC(=O)C[S+]([O-])Cc1csc(C2CCCC2)n1 (stereo not drawn) | 11
28 | CCN(CC)c1ncc(Cl)c(C(=O)NC2CCC(O)CC2)n1 (stereo not drawn) | -0.431
29 | O=C(CCn1cncn1)NCC1CCCC1 | -6.57
30 | COCCN(Cc1ccccn1)C(=O)CC1OCCc2sccc21 (stereo not drawn) | -9.62
31 | CCCc1nn(Cc2csc(C(C)C)n2)c(=O)o1 | -7.07
32 | N#Cc1ccccc1OCCN1CCN(C(=O)C2CCCC2)CC1 | 7.87
33 | COc1ccc2c(c1)CC(NCc1cccc(NC(C)=O)c1)CC2 (stereo not drawn) | -5.85
34 | Cc1cnc(N2CCC(OCCN3CCCCC3)C2)nc1C (stereo not drawn) | -4.38
35 | COCCN(Cc1ccccn1)C(=O)CC1OCCc2ccccc21 (stereo not drawn) | -6.98
36 | CCN1CCC(NC(=O)CNC(C)Cn2cccn2)CC1 (stereo not drawn) | 11.4
37 | Cn1cc(C(=O)N2CCN(c3ccccc3)CC2)ccc1=O | -6.86
38 | CCCC(NC(=O)c1cc(C2CC2)[nH]n1)c1nnc2ccccn12 (stereo not drawn) | -12.1
39 | Cc1cc(C)c(CNC(=O)NC2CCN(C(=O)C(C)C)CC2)c(C)c1 | -10.6
40 | CC(C)(C)NCC(=O)N1CCCC(n2ccnc2)C1 (stereo not drawn) | -9.3
41 | Cc1cnn(CCNCc2nccn2CC(F)(F)F)c1 | 1.15
42 | COc1ccc(C2(c3nc(-c4cnn(C)c4)no3)CCOCC2)cc1 | -3.48
43 | Cc1cnn(CC(C)NCC(=O)NC2CCOCC2)c1 (stereo not drawn) | 18.5
44 | CCOc1cc2c(cc1CNC(Cc1cccs1)c1nccs1)OCO2 (stereo not drawn) | 1.33
45 | CC(C)(CN)NS(=O)(=O)c1c(F)cccc1F | 2.67
46 | Cc1c(F)cccc1S(=O)(=O)NCCN | -0.256
47 | COc1ccc(CN)c(OC(F)F)c1 | -10.1
48 | NCc1ccc(OC(F)F)cc1OC(F)F | -15.9
